Experimental findings from ChEMBL document CHEMBL1146441, “Naphthalenone and Phthalide Metabolites from Lachnum papyraceum 1” (J Nat Prod, 1997) are described below.

The test system of one test is Lepidium sativum. The experiment in a line: Phytotoxicity against Lepidium sativum assessed per disk. Type of test: functional, organism-based.
Another test concerns L1210. In words: Cytotoxicity against mouse L1210 cells after 48 hrs. Type of test: functional, cell-based. The conditions noted are these: L1210, 48 h.
Another test relates to Penicillium chrysogenum. The experiment in a line: Antifungal activity against Penicillium notatum. In kind it is functional.
A further test relates to Paecilomyces variotii. In words: Antifungal activity against Paecilomyces variotii. In kind it is functional.
The next test concerns Rhizomucor miehei. The experiment in a line: Antifungal activity against Mucor miehei. Type of test: functional.
Another test concerns Micrococcus luteus. In words: Antibacterial activity against Micrococcus luteus. In kind it is functional.
Test [1] has as its system Enterobacter cloacae subsp. dissolvens. The experiment in a line: Antibacterial activity against Enterobacter dissolvens. In kind it is functional.

≈ marks a conversion by molar mass, not a printed value. Calls of active or inactive are those of the source. The calls are words filed in the database; no cut-off is given here.

As to `COc1c(C)c(OCC=C(C)C)c2c(c1C(=O)O)C(=O)OC2`, the outcome (with Lepidium sativum; in the test with Penicillium chrysogenum; in the test with Paecilomyces variotii; in the test with Rhizomucor miehei; in the test on Micrococcus luteus; in test [1]) was inactive. In the test on L1210, the IC50 came out at 50 µg/mL (≈ 163 µM).

As for `COc1cc2c(c(O)c1C)C(=O)CCC2O` (stereo unspecified), the IC50 in the test on Lepidium sativum was found to be 100 µg; in the test on L1210 it was 25 µg/mL (≈ 112 µM). Further, the MIC (against Penicillium chrysogenum; against Paecilomyces variotii; with Rhizomucor miehei; in the test with Micrococcus luteus; in test [1]) was 100 µg/mL (≈ 450 µM) each time.

In the case of `COC(=O)c1c(OC)c(C)c(OCC=C(C)C)c2c1C(=O)OC2`, the result (in the test with Lepidium sativum; in the test with Penicillium chrysogenum; with Paecilomyces variotii; in the test with Rhizomucor miehei; in the test with Micrococcus luteus; in test [1]) was inactive. In the test on L1210, the IC50 came to 25 µg/mL (≈ 78 µM).

Usually MIC stands for the lowest concentration that inhibits growth of the organism. A low value points to inhibition by little substance.
